In experiment [1] the target is T1, CAC C23V/C58V/C89S/C155V/C283S mutant (Rattus norvegicus, UniProt P97521, C155V/C23V/C283S/C58V/C89S).
T1 construct: made in house; host or cells: E. coli C0214
T1 sequence (P97521 1-301 C23V/C58V/C89S/C155V/C283S): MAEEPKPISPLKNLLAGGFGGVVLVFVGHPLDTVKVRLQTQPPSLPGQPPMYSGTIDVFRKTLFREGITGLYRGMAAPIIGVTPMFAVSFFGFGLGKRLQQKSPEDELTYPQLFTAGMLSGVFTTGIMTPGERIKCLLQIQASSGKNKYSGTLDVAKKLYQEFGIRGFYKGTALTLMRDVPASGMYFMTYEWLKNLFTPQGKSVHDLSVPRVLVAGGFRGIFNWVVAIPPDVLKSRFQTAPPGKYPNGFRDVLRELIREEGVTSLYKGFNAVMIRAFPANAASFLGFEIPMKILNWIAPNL
In words: Transport assay in proteoliposomes, CAC mutant containing the sole C136. The experiment is classed as biochemical. The note with it: read-out: IC50 for itaconate inhibition. The method, then: As previously described, the pMW7-WTratCAC recombinant plasmid was used for over-expressing the rat CAC [22]. The overlap extension method was used to introduce the mutations; in the main time, NdeI and HindIII restriction sites were also added using appropriate primers. The PCR products were purified by the QIAEX II Gel Extraction Kit (QIAGEN) and digested with NdeI and HindIII and then ligated into the pMW7. All mutations were verified by DNA sequencing. The resulting plasmid constructs were transformed into E. coli C0214. Overexpression, inclusion body fraction preparation, and purification of the CAC proteins were performed as previously described. […]
(§1) To test the transport activity of the CAC, 550 μL of proteoliposomes was passed through a Sephadex G-75 column to remove the external substrate. […] Transport rates were measured in 10 min, i.e., within the initial linear range of the time course, at 25 °C. After terminating the transport reaction, the external substrate was removed by chromatography on the Sephadex G-75 column, and the intraliposomal radioactivity was measured. […]
(§2) Figure 3 Identification of residue responsible for itaconate inhibition. […] Transport activity of the WT (○), C136A (●), C155A (Δ), C23V/C58V/C89S/C155V/C283S (▲), and C23V/C58V/C89S/C136V/C155V/C283S (□) was measured by adding 0.1 mM [^3H]carnitine after treatment by itaconate at the indicated concentrations. […]

Experiment [2] concerns the target T2, native ornithine/citrulline carrier (ORC, SLC25A15) (Rattus norvegicus, UniProt A0A0G2K309).
T2 construct: from tissue; host or cells: rat liver mitochondria
T2 sequence (A0A0G2K309 1-301): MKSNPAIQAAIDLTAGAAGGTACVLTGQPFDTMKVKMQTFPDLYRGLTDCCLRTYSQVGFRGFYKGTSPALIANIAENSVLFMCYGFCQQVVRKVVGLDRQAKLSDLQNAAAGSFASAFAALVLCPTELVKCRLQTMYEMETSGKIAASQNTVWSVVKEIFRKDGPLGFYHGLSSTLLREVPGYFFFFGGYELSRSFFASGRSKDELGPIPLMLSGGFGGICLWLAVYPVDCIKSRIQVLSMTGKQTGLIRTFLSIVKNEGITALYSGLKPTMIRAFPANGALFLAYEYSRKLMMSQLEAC
The experiment in a line: [3H]ornithine transport in proteoliposomes reconstituted with native ORC. In kind it is biochemical. The note with it: read-out: IC50 for itaconate inhibition.
Excerpt: As previously described, recombinant CAC (WT and mutants) and ORC1 proteins were used for proteoliposome formation. For experiments with native CAC, ORC1, or ANT proteins, rat liver mitochondria, or HeLa cell mitochondria, the latter for the CAC alone, were first purified using the standard procedure of cell disruption and differential centrifugation. Then proteins were extracted using 3% Triton X-100 and reconstituted as described for the recombinant proteins. The concentration of intraliposomal carnitine and ornithine was 15 mM and 30 mM, respectively, in all samples.
as §1, §2

Regarding `C=C(CC(=O)O)C(=O)O` [itaconate], the figures for the IC50 in experiment [1] and in experiment [2] were 4 ± 0.14 mM and 52 ± 5.5 mM, respectively.
